Among the data in patent US20060183902A1, “Dihydroindolyl methanones as alpha 1a/1d adrenoreceptor modulators for the treatment of benign prostatic hypertrophy and lower urinary tract symptoms” (priority 2005, published 2006) are Ki values, retold here.

One test concerns the target T1, α1a-AR (Homo sapiens, UniProt P35348).
T1 construct: expressed in transfected cells; host or cells: COS-7
T1 sequence (P35348 1-466): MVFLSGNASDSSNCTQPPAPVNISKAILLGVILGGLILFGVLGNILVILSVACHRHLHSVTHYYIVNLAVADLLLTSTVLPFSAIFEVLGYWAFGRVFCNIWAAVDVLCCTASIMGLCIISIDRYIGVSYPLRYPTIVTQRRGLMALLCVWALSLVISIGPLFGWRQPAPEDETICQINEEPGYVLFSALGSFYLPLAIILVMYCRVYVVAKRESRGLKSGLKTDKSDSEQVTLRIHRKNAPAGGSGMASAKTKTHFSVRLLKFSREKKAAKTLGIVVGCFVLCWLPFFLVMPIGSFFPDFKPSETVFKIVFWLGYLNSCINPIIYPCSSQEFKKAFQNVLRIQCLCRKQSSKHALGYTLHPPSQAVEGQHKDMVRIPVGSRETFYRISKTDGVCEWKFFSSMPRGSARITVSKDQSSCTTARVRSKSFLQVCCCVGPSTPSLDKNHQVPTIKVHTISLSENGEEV
The test is described as follows: α1-Adrenergic receptor radio-ligand (125I-HEAT) binding assay, α1a subtype. As to conditions: COS-7 cell membranes transfected with α1a-AR, 125I-HEAT 50 pM; read-out: Receptor Binding, Ki α1a-AR. Here is the method:
(§1) Membranes were prepared from COS-7 cells (African Green monkey kidney SV40-transformed cells) that had been transfected with one of the three α1-AR subtypes by the following method:
(§2) COS cells from ten 100 mm tissue culture plates were scraped into a 5 mL volume of TE (a mixture of 50 mM tris(hydroxymethyl)aminomethane hydrochloride (Tris-HCl) and 5 mM ethylenediaminetetraacetic acid (EDTA) at pH 7.4). The cell suspension was disrupted with a Brinkman Polytron (at a setting of 8) for 10 sec. The disrupted cells were centrifuged at 1000×g for 10 min at 4° C. Supernatants were centrifuged at 34,500×g for 20 min at 4° C. The membrane pellets were suspended in a 2 mL volume of TNE (a mixture of 50 mM Tris-HCl, 5 mM EDTA and 150 mM NaCl at pH7.4). An aliquot of the membrane suspension was stored at −70° C. until use. The protein concentration was determined using a BioRad “DC” protein assay kit following membrane solubilization with Triton X-100.
(§3) Triplicate determinations of radio-ligand binding in the presence of increasing concentrations of testing compound were made. The reagents were added to 96-well polypropylene plate wells. Each assay well contained 140 μL TNE, 25 μL ^125I-2-(β-4-hydroxyplenyl)ethylaminomethyltetralone (^125I-HEAT) (specific activity 2200 Ci/mmol, Dupont-New England Nuclear, 50 pM final), 10 μL testing compound dissolved in dimethyl sulfoxide (DMSO) (1 pM to 10 μM in half-log increments, final), and 25 μL appropriate α1-AR membrane subtype suspension in TNE (0.5 ng/μL for the α1a and α1b subtypes and 13 ng/μL for the α1d subtype). The plate was incubated at rt for 1 hr. The contents of the wells were filtered through a glass filter (type C) (GF/C) membrane Unifilter plate (Packard Instruments) using the Packard Filtermate cell harvester. The filter plates were dried in a vacuum oven for 30 min at 40° C. 25 μL Microscint 20 liquid scintillation fluid (Packard Instuments) was added to each well. The radioactive content was analyzed in the TopCount microplate scintillation counter (Packard Instruments).
(§4) The Ki values (in nM) shown in Table 1 were determined using GraphPad Prism software.

The next test has as its target T2, α1b-AR (Homo sapiens, UniProt P35368).
T2 construct: expressed in transfected cells; host or cells: COS-7
T2 sequence (P35368 1-520): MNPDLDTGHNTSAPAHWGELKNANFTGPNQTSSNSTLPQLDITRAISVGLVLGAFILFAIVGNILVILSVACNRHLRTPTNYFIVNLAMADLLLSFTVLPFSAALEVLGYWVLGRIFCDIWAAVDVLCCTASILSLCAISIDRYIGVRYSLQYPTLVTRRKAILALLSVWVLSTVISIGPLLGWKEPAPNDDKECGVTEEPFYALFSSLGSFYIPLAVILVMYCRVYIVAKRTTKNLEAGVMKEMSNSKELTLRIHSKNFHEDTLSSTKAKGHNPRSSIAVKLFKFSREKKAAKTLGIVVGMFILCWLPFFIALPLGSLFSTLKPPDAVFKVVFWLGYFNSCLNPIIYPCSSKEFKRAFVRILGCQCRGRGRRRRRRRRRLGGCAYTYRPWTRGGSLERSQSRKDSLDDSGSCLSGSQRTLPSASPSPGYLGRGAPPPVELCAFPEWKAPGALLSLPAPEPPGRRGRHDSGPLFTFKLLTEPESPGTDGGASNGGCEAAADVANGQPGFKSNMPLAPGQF
The test is described as follows: α1-Adrenergic receptor radio-ligand (125I-HEAT) binding assay, α1b subtype. To be noted: COS-7 cell membranes transfected with α1b-AR, 125I-HEAT 50 pM; read-out: Receptor Binding, Ki α1b-AR. The method, then:
as §1, §2, §3, §4

Another test concerns the target T3, α1d-AR (Homo sapiens, UniProt P25100).
T3 construct: expressed in transfected cells; host or cells: COS-7
T3 sequence (P25100 1-572): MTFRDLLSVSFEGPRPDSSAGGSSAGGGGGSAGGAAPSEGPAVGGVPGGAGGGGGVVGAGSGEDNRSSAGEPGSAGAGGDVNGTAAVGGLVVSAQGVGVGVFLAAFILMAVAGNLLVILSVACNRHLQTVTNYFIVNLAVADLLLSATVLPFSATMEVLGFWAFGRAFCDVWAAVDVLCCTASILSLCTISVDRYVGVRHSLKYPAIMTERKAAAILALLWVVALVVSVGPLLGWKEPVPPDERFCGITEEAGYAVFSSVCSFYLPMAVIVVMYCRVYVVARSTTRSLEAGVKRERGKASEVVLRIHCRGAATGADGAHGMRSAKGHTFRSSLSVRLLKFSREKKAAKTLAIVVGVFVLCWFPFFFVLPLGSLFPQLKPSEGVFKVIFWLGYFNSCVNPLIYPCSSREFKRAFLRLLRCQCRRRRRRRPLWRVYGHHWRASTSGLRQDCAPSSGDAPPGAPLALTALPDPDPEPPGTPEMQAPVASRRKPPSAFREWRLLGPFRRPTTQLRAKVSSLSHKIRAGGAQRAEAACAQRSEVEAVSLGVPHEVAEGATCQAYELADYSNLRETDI
The test is described as follows: α1-Adrenergic receptor radio-ligand (125I-HEAT) binding assay, α1d subtype. To be noted: COS-7 cell membranes transfected with α1d-AR, 125I-HEAT 50 pM; read-out: Receptor Binding, Ki α1d-AR. Here is the method: as §1, §2, §3, §4

“And” between values parts separate entries of the source, which are not always exact repeats. Equal entries are not always repeated.

On to `CC(C)Oc1ccccc1N1CCN(Cc2cccc(C(=O)N3CCc4cc(S(=O)(=O)N(C)C)ccc43)c2)CC1` [Cpd 70, 1-{3-[4-(2-isopropoxy-phenyl)-piperazin-1-ylmethyl]-benzoyl}-2,3-dihydro-1H-indole-5-sulfonic acid dimethylamide], for which the Ki at α1a-AR was 107 nM; at α1b-AR, 1760 nM; at α1d-AR, 41 nM.

For `COc1ccccc1C1CCN(Cc2ccc(C(=O)N3CCc4ccc(NC(=O)c5c(OC)cccc5OC)cc43)cc2)CC1` [Cpd 39, 2,6-dimethoxy-N-(1-{4-[4-(2-methoxy-phenyl)-piperidin-1-ylmethyl]-benzoyl}-2,3-dihydro-1H-indol-6-yl)-benzamide], the values for the Ki at α1a-AR, at α1b-AR and on α1d-AR were 74 nM, 595 nM and 41 nM, respectively.

In the case of `COc1cccc(OC)c1CNc1ccc2c(c1)N(C(=O)c1cccc(CN3CCN(c4ccccc4OC(C)C)CC3)c1)CC2` [Cpd 7, [6-(2,6-dimethoxy-benzylamino)-2,3-dihydro-indol-1-yl]-{3-[4-(2-isopropoxy-phenyl)-piperazin-1-ylmethyl]-phenyl}-methanone], the Ki at α1a-AR amounted to 11 nM; on α1b-AR, 684 nM; on α1d-AR it was 16 nM.

Consider `CC(C)Oc1ccccc1CN1CCN(Cc2ccc(C(=O)N3CCc4ccccc43)cc2)CC1` [Cpd 52, (2,3-dihydro-indol-1-yl)-{4-[4-(2-isopropoxy-benzyl)-piperazin-1-ylmethyl]-phenyl}-methanone], for which the Ki on α1a-AR is 122 nM; on α1b-AR, 1730 nM; at α1d-AR it was 159 nM.

Turning to `CC(C)(C)OC(=O)N1CCN(Cc2cccc(C(=O)N3CCc4ccccc43)c2)CC1` [Cpd 54, 4-[3-(2,3-dihydro-indole-1-carbonyl)-benzyl]-piperazine-1-carboxylic acid tert-butyl ester], on α1a-AR, the Ki stood at 67.5 nM.

With `CC(C)Oc1ccccc1C1CCN(Cc2cccc(C(=O)N3CCc4ccc(NCc5ccccc5F)cc43)c2)CC1` [Cpd 57, [6-(2-fluoro-benzylamino)-2,3-dihydro-indol-1-yl]-{3-[4-(2-isopropoxy-phenyl)-piperidin-1-ylmethyl]-phenyl}-methanone], the Ki at α1a-AR was 1.8 nM; on α1b-AR, 237 nM; at α1d-AR, 1.4 nM.

As for `CC(C)Oc1ccccc1N1CCN(Cc2cccc(C(=O)N3CCc4ccc(NC(N)=O)cc43)c2)CC1` [Cpd 49, (1-{3-[4-(2-isopropoxy-phenyl)-piperazin-1-ylmethyl]-benzoyl}-2,3-dihydro-1H-indol-6-yl)-urea], the inhibition constant Ki at α1a-AR turned out to be 14 nM; at α1b-AR it was 351 nM; on α1d-AR, 13 nM.

Consider `COc1ccccc1C1CCN(Cc2cccc(C(=O)N3CCc4ccc(NCc5ccccc5F)cc43)c2)CC1` [Cpd 59, [6-(2-fluoro-benzylamino)-2,3-dihydro-indol-1-yl]-{3-[4-(2-methoxy-phenyl)-piperidin-1-ylmethyl]-phenyl}-methanone], for which the results for the Ki at α1a-AR, on α1b-AR and at α1d-AR were 8.3 nM, 101 nM and 1.1 nM, respectively.

With `CC(C)Oc1ccccc1N1CCN(Cc2cccc(C(=O)N3CCc4ccc(N)cc43)c2)CC1` [Cpd 5, (6-amino-2,3-dihydro-indol-1-yl)-{3-[4-(2-isopropoxy-phenyl)-piperazin-1-ylmethyl]-phenyl}-methanone], the results for the Ki at α1a-AR, on α1b-AR and at α1d-AR were 1.9 nM, 143 nM and 2 nM, respectively.

For `CC(C)Oc1ccccc1N1CCN(Cc2cccc(C(=O)N3CCc4cc(NS(N)(=O)=O)ccc43)c2)CC1` [Cpd 17, N-(1-{3-[4-(2-isopropoxy-phenyl)-piperazin-1-ylmethyl]-benzoyl}-2,3-dihydro-1H-indol-5-yl)-sulfamide], the inhibitory constant (Ki) came out at 14 nM at α1a-AR, 812 nM on α1b-AR and 7.6 nM at α1d-AR.

For the compound `CC(C)Oc1ccccc1N1CCN(Cc2cccc(C(=O)N3CCc4ccc(NS(N)(=O)=O)cc43)c2)CC1` [Cpd 20, N-(1-{3-[4-(2-isopropoxy-phenyl)-piperazin-1-ylmethyl]-benzoyl}-2,3-dihydro-1H-indol-6-yl)-sulfamide], the Ki at α1a-AR was 4.7 nM and 8.1 nM; at α1b-AR, 494 nM and 394 nM; on α1d-AR, 1.9 nM and 2.6 nM.

As to `CC(C)Oc1ccccc1N1CCN(Cc2cccc(C(=O)N3CCc4ccc(NCc5ccccc5F)cc43)c2)CC1` [Cpd 44, [6-(2-fluoro-benzylamino)-2,3-dihydro-indol-1-yl]-{3-[4-(2-isopropoxy-phenyl)-piperazin-1-ylmethyl]-phenyl}-methanone], the Ki on α1a-AR was 1.3 nM; at α1d-AR, 4.2 nM.

For the compound `COc1ccc(OC)c2c1CC(Nc1ccc3c(c1)N(C(=O)c1cccc(CN4CCN(c5ccccc5OC(C)C)CC4)c1)CC3)C2` [Cpd 29, [6-(4,7-dimethoxy-indan-2-ylamino)-2,3-dihydro-indol-1-yl]-{3-[4-(2-isopropoxy-phenyl)-piperazin-1-ylmethyl]-phenyl}-methanone], the Ki was found to be 20.8 nM at α1a-AR and 847 nM at α1b-AR.

Take `CC(C)Oc1ccccc1N1CCN(Cc2cccc(C(=O)N3CCc4cc(NC(=O)Nc5ccc(Cl)cc5Cl)ccc43)c2)CC1` [Cpd 14, 1-(2,4-dichloro-phenyl)-3-(1-{3-[4-(2-isopropoxy-phenyl)-piperazin-1-ylmethyl]-benzoyl}-2,3-dihydro-1H-indol-5-yl)-urea]: the results for the inhibitory constant (Ki) on α1a-AR and on α1d-AR were 22 nM and 4 nM, respectively.

As to `O=C(c1cccc(CN2CCN(c3ccccc3OCC(F)(F)F)CC2)c1)N1CCc2ccccc21` [Cpd 63, (2,3-dihydro-indol-1-yl)-(3-{4-[2-(2,2,2-trifluoro-ethoxy)-phenyl]-piperazin-1-ylmethyl}-phenyl)-methanone], the Ki on α1d-AR was 0.5 nM and 1.9 nM.

With `CCCCCCCCc1ccc(CNc2ccc3c(c2)N(C(=O)c2cccc(CN4CCN(c5ccccc5OC(C)C)CC4)c2)CC3)cc1` [Cpd 10, {3-[4-(2-isopropoxy-phenyl)-piperazin-1-ylmethyl]-phenyl}-[6-(4-octyl-benzylamino)-2,3-dihydro-indol-1-yl]-methanone], the Ki at α1a-AR is 836 nM; on α1d-AR it was 250 nM.

What is called Ki is the dissociation constant of the complex between target and ligand, obtained from inhibition or displacement.
